For this assay, the system named is HEK293 cells. In words: Preliminary screening as mRNA vectors, EGFP mRNA transfection of HEK293 cells. The assay is classed as cell-based. The note with it: EGFP mRNA 50 ng per well, 96-well plates; percentage of GFP fluorescent cells relative to total number of cells (Hoechst). A digest of the protocol:
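Screening format: EGFP mRNA transfection (50 ng/well) into HEK293 in 10% FBS-supplemented DMEM. Percent green fluorescent cells, normalised to Hoechst nuclear count, gave the value; Lipofectamine2000 was the reference transfectant.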
As to `CCCCCCCCCCCCNc1nc(NCCN2CCCCC2)nc(SCCCCCCCCCCCC)n1` [Compound D4S12N12], the “Absolute mRNA transfection efficiency in HEK293 cells” value (from here on “Absolute mRNA transfection efficiency”) came out at 2.1%.

`CCCCCCCCCCCCCNc1nc(NCCN2CCCCC2)nc(SCCCCCCCCCCCC)n1` [Compound D4S12N13]: the “Absolute mRNA transfection efficiency” value was 1.3%.

Regarding `CCCCCCCCCCCCCCCNc1nc(NCCN2CCCCC2)nc(SCCCCCCCCCCCC)n1` [Compound D4S12N15], the “Absolute mRNA transfection efficiency” value is on record as 2.0%.

As for `CCCCCCCCCCCCCCCCNc1nc(NCCN2CCCCC2)nc(SCCCCCCCCCCCC)n1` [Compound D4S12N16], the “Absolute mRNA transfection efficiency” value was found to be 1.3%.

Turning to `CCCCCCCCCCCCCCCCCCNc1nc(NCCN2CCCCC2)nc(SCCCCCCCCCCCC)n1` [Compound D4S12N18], the “Absolute mRNA transfection efficiency” value is listed as 4.6%.

Turning to `CCCCCCCCCCCCCCSc1nc(NCCCCCC)nc(NCCN2CCCCC2)n1` [Compound D4S14N6], the “Absolute mRNA transfection efficiency” value is on record as 3.0%.

Turning to `CCCCCCCCCCCCCCSc1nc(NCCCCCCC)nc(NCCN2CCCCC2)n1` [Compound D4S14N7], the “Absolute mRNA transfection efficiency” value was found to be 4.5%.

`CCCCCCCCCCCCCCSc1nc(NCCCCCCCC)nc(NCCN2CCCCC2)n1` [Compound D4S14N8]: the “Absolute mRNA transfection efficiency” value was found to be 3.2%.

`CCCCCCCCCCCCCCSc1nc(NCCCCCCCCC)nc(NCCN2CCCCC2)n1` [Compound D4S14N9]: the “Absolute mRNA transfection efficiency” value stood at 4.0%.

Take `CCCCCCCCCCCCCCSc1nc(NCCCCCCCCCCC)nc(NCCN2CCCCC2)n1` [Compound D4S14N11]: the “Absolute mRNA transfection efficiency” value is on record as 3.8%.

Consider `CCCCCCCCCCCCCCSc1nc(NCCCCCCCCCCCC)nc(NCCN2CCCCC2)n1` [Compound D4S14N12], for which the “Absolute mRNA transfection efficiency” value amounted to 12.6%.

`CCCCCCCCCCCCCCSc1nc(NCCCCCCCCCCCCC)nc(NCCN2CCCCC2)n1` [Compound D4S14N13]: the “Absolute mRNA transfection efficiency” value was found to be 14.5%.

With `CCCCCCCCCCCCCCCNc1nc(NCCN2CCCCC2)nc(SCCCCCCCCCCCCCC)n1` [Compound D4S14N15], the “Absolute mRNA transfection efficiency” value was 1.7%.

On to `CCCCCCCCCCCCCCCCNc1nc(NCCN2CCCCC2)nc(SCCCCCCCCCCCCCC)n1` [Compound D4S14N16], for which the “Absolute mRNA transfection efficiency” value was 1.4%.

As to `CCCCCCCCCCCCCCCCCCNc1nc(NCCN2CCCCC2)nc(SCCCCCCCCCCCCCC)n1` [Compound D4S14N18], the “Absolute mRNA transfection efficiency” value was 2.2%.

For `CCCCCCCCCCCCCCCSc1nc(NCCCCCC)nc(NCCN2CCCCC2)n1` [Compound D4S15N6], the “Absolute mRNA transfection efficiency” value is listed as 1.3%.

In the case of `CCCCCCCCCCCCCCCSc1nc(NCCCCCCC)nc(NCCN2CCCCC2)n1` [Compound D4S15N7], the “Absolute mRNA transfection efficiency” value worked out at 1.2%.

In the case of `CCCCCCCCCCCCCCCSc1nc(NCCCCCCCC)nc(NCCN2CCCCC2)n1` [Compound D4S15N8], the “Absolute mRNA transfection efficiency” value was found to be 1.6%.

With `CCCCCCCCCCCCCCCSc1nc(NCCCCCCCCC)nc(NCCN2CCCCC2)n1` [Compound D4S15N9], the “Absolute mRNA transfection efficiency” value is 1.8%.

For the molecule `CCCCCCCCCCCCCCCSc1nc(NCCCCCCCCCCC)nc(NCCN2CCCCC2)n1` [Compound D4S15N11], the “Absolute mRNA transfection efficiency” value was 1.0%.

For the molecule `CCCCCCCCCCCCCCCSc1nc(NCCCCCCCCCCCC)nc(NCCN2CCCCC2)n1` [Compound D4S15N12], the “Absolute mRNA transfection efficiency” value came out at 1.6%.

For `CCCCCCCCCCCCCCCSc1nc(NCCCCCCCCCCCCC)nc(NCCN2CCCCC2)n1` [Compound D4S15N13], the “Absolute mRNA transfection efficiency” value is 0.8%.

For the molecule `CCCCCCCCCCCCCCCNc1nc(NCCN2CCCCC2)nc(SCCCCCCCCCCCCCCC)n1` [Compound D4S15N15], the “Absolute mRNA transfection efficiency” value came to 3.5%.

As for `CCCCCCCCCCCCCCCCNc1nc(NCCN2CCCCC2)nc(SCCCCCCCCCCCCCCC)n1` [Compound D4S15N16], the “Absolute mRNA transfection efficiency” value is given as 4.8%.
